From a melting point compilation (Tetko et al.; mined from patent text by program, amines drawn as free bases though some values may be those of a salt) come the findings set out here.

A word on the melting point: it is the temperature, or range, at which the solid turns liquid.

`O=C1NC(=O)c2c1c(-c1ccccc1Cl)cc1c2cc(C(=O)O)n1CCCBr` displayed a melting point of 294 to 295 °C.
On to `O=C(c1cccn1N1C(=O)c2ccccc2C1=O)C1CC1`, for which the melting point lay within 150 to 152 °C.
Turning to `CCc1nc2ccc(F)cc2c(OC(=O)C2CC2)c1C`, the melting point was in the range of 86 to 87 °C.
For `Cc1c(-c2ccc(OCc3ccccc3)cc2)[nH]c2ccc(OCc3ccccc3)cc12`, the melting point fell in the range of 149 to 150 °C.
`COC(=O)CCc1ccc(S(=O)(=O)c2ccc(NC(=O)c3ccc(Cl)c(Cl)c3)cn2)cc1` returned a melting point of 165 to 166 °C.
Under `Clc1ccc(C(=Cc2ccccc2Cl)Cn2cncn2)cc1` stands 106 to 110 °C; under `CCOC(=O)COc1ccc(C=O)c(O)c1`, 97 to 99 °C; under `Cc1cc(C)c2nc(C)c(C(=O)O)c(-c3ccccc3Cl)c2c1`, 278 to 279 °C.
For the compound `CC1(C)OC(=O)C(=Cc2ccc(Br)s2)C1=O`, the melting point lay within 173 to 175 °C.
Under `CC(CC1CCOCC1)(c1ccc(S(C)(=O)=O)cn1)c1ccc(-c2ccccn2)[nH]1` (configuration not stated) stands 135 to 136 °C; under `CC(C)(C)c1ccc(-c2ccc3c(C(N)=O)nn(-c4ccc(S(N)(=O)=O)cc4)c3c2)cc1`, 262 to 263 °C.
Take `CC(C)(C)C(NC(=O)Cc1ccc(Cl)cc1)NC(=NC#N)c1cccc2ncccc12` (configuration not stated): the melting point lay within 218 to 220 °C.
The compound `CN1CCN(C2=Nc3cc(Cl)cc4ccn(c34)-c3ccccc32)CC1` registered a melting point of 184 to 186 °C.
As for `O=C(/C=C/[C@@H]1[C@H]2CC(=O)O[C@H]2C[C@H]1OC(=O)c1ccccc1)COc1ccccc1`, the melting point is 132 °C.
Compound `COc1ccc([C@H](O)[C@@H](Cc2ccc(C(F)(F)F)cc2)C(=O)O)cc1` (racemic) yielded a melting point of 113 to 114 °C.
The compound `Cc1cccc(-c2n[nH]cc2-c2ccc(F)c(-c3ccc(S(=O)(=O)CCO)cc3)c2)n1` came in with a melting point of 88 to 90 °C.
Turning to `CNC(=O)C(Cc1ccc(OC)cc1)NC(=O)C(C)(CC(C)C)c1c(S)cccc1Cl` (configuration not stated), the melting point fell in the range of 159 to 163 °C.
Under `COC(=O)C1CC(=O)N(c2ccc(C)cc2)C1` (configuration not stated) stands 71 to 74 °C; under `COc1ccc(CCNC(=O)CCCCC(=O)NCCc2cccc3ccccc23)cc1OC`, 156 to 157 °C; under `O=C1CCC(c2c[nH]c3ccccc23)CC1`, 123 to 125 °C.
`c1cc(OCC2CO2)c2cn[nH]c2c1` (configuration not stated) showed a melting point of 60 °C.
Compound `CCSc1c[nH]nc1C1=CCCN(C)C1` had a melting point of 95 to 97 °C.
Under `Cc1ccc(C(=O)OC2CCCCC2=O)cc1` (configuration not stated) stands 68 to 69 °C; under `Cn1ncc2c(=O)n3ccsc3nc21`, 220 to 221 °C.
Under `CCNc1nc(SC)ncc1CO` stands 152 to 156 °C.
The compound `Cc1c(CCl)ncn1S(=O)(=O)N(C)C` gave a melting point of 115 to 118 °C.
Under `Cc1ccnn1-c1ccc(NC(=O)c2ccc(Cl)cc2)cc1` stands 189 to 191 °C.
As to `CCc1ccc(-c2nc(COc3ccc(CCCn4ccnc4)cc3)co2)s1`, the melting point lay within 57 to 58 °C.
Under `CCOC(=O)CCCC(=O)CNC(=O)c1csc(NC(=O)NCc2ccccn2)n1` stands 110 °C; under `CCOC(=O)c1c(C)cc2cnc(-c3ccccc3C)nc2c1C`, 56 to 57 °C.
Take `COc1ccc(Cl)cc1C(=O)NC1COc2cc(C)ccc2C1=O` (configuration not stated): the melting point lay in the range of 177 to 178 °C.
`c1ccc2c(c1)Oc1ccccc1-n1nnnc1-2` yielded a melting point of 206 to 208 °C.
In the case of `CC(O)c1cc(-c2cccc(F)c2)ccc1N` (configuration not stated), the melting point is 136 to 137 °C.
`O=c1[nH]c2ccc(CCCN3CCC(Cc4ccc(F)cc4)CC3)cc2o1` showed a melting point of 105 to 107 °C.
Under `COC(=O)[C@H](c1ccccc1Cl)N1CCc2sc(OC(=O)N(C)C)cc2C1` stands 96 to 98 °C; under `CCC(C)(C)Nc1c(NCc2cc(Cl)ccc2Cl)c(=O)c1=O`, 195 to 196 °C; under `O=C(O)c1cc(Cl)ccc1Nc1ccc(OCc2ccccc2)cc1`, 189 to 191 °C.
`Cc1cc(Oc2c(F)cc(C(F)(F)F)cc2Cl)nn1C(N)=O`: the melting point lay within 132 to 135 °C.
`C=Cc1cc(OCOCCOC)c(OCOCCOC)c(Cl)c1Cl` had a melting point of 60 °C.
Under `C=C(C)C(=O)Nc1ccc(O)c(-n2nc3ccc(Cl)cc3n2)c1` stands 204 to 205 °C; under `C=CCc1c(O)ccc2c(C)cc(=O)oc12`, 192 to 195 °C; under `O=[N+]([O-])c1cc(O)c(Cl)cc1F`, 106 to 107 °C.
Turning to `O=C(O)CS(=O)c1cccc(-c2nc(=O)c3ccccc3s2)n1` (configuration not stated), the melting point lay within 186 to 188 °C.
As to `Cc1cc(C)cc(-c2nnc(C(N)=O)o2)c1`, the melting point was 230 °C.
Compound `OCC1CCN(CC(O)c2ccc(F)cc2)CC1` (configuration not stated) displayed a melting point of 113 °C.
For the compound `CCOc1nn(-c2ccc(C(F)(F)F)cn2)cc1CCCOc1nn(CC)cc1CC(=O)O`, the melting point lay within 108 to 109 °C.
Compound `CNC(=O)N1CC(Oc2cccc(Cl)c2)C1` registered a melting point of 140 to 141 °C.
Under `CS(=O)(=O)NCCCc1c[nH]c(-c2ccc(F)cc2)c1-c1ccncc1` stands 210 to 214 °C; under `ONCc1ccc2c(c1)Cc1ccccc1-2`, 150 to 152 °C; under `CCn1ncc(CC(=O)O)c1OCCCc1cn(-c2ccc(C(F)(F)F)cn2)nc1C(C)C`, 120 to 121 °C.
Compound `NN(Cc1ccccc1[N+](=O)[O-])c1ccc(Cl)cc1` had a melting point of 105 to 106 °C.
Under `O=C1C=C(NC(=O)C(=O)c2cn(Cc3ccc4ccccc4c3)c3ccccc23)CO1` stands 283 to 285 °C; under `COc1cc(NC(N)=S)c(Cl)c(OC)c1`, 159 to 162 °C.
With `CC(C)(C)OC(=O)NC1CC(=O)C1`, the melting point lay in the range of 75 to 78 °C.
Under `CC(=O)OC(=CC(=O)O)CC(=O)Nc1ccccc1` stands 125 to 126 °C.
Under `CC(=O)N(O)C(C)c1ccc2c(c1)Cc1ccccc1-2` (configuration not stated) stands 168 to 171 °C; under `Cc1cc(-n2cccn2)c2cccc(OCc3c(Cl)ccc(S(=O)(=O)N4CCC(CO)CC4)c3Cl)c2n1`, 138 °C; under `O=C(O)CCCN1C(=O)c2ccc([N+](=O)[O-])cc2C1=O`, 176 to 178 °C.
As for `Cc1oncc1-c1ccc(OC2SCC(O)C(O)C2O)cn1` (configuration not stated), the melting point came out at 184 °C.
Under `CNC(=O)c1ccc(N2CCN(Cc3cc4c(c(OC(F)F)c3)OC(C)C(=O)N4)CC2)cc1` (configuration not stated) stands 210 to 213 °C; under `CS(=O)c1cc(CCC(=O)OC(C)(C)C)cc(-c2nc(=O)c3ccccc3s2)n1` (configuration not stated), 220 °C.
Under `CCCCOc1ccc2[nH]n(Cc3ccccc3)c(=O)c2c1` stands 146 to 147 °C; under `CC(C)(C)OC(=O)N1CCN(C2=Nc3ccccc3Sc3ccccc32)CC1`, 127 to 130 °C.
Under `O=C1CC(Cc2ccc(Cl)cc2Cl)CN1` (configuration not stated) stands 85 to 86 °C; under `CCCn1c(=O)c2c(nc(C=Cc3cc(OC)c(OC)cc3S(=O)(=O)O)n2C)n(CCC)c1=O`, 192 to 194 °C.
Regarding `CC(=O)SC(CC(=O)c1ccc(Oc2ccc(C(C)C)cc2)cc1)C(=O)O` (configuration not stated), the melting point lay within 110 to 112 °C.
Under `N#CCCOc1ccc2c(c1)CCO2` stands less than 50 °C; under `Cc1oc(-c2ccccc2)nc1COc1ccc(Cn2cc(CC(=O)O)c(-c3cccs3)n2)cc1`, 98 to 99 °C.
Under `CN1C[C@H]2Cc3ccc(Cl)cc3[C@H](c3ccc(Cl)cc3)[C@H]2C1` (racemic) stands 133 to 135 °C; under `Cc1cc(F)cc2[nH]c(=O)c(=O)[nH]c12`, more than 300 °C.
Under `NS(=O)(=O)c1ccc(-c2cnn(CC=C(Cl)Cl)c(=O)c2-c2ccc(F)cc2)cc1` stands 184 to 185 °C; under `O=C(c1cc(C(F)(F)F)cc(C(F)(F)F)c1)N1CCNCCC1c1ccccc1` (configuration not stated), 151 to 153 °C.
In turn, `O=C1c2ccccc2C(O)N1CCCSc1ccncc1` (configuration not stated) displayed a melting point of 132 to 134 °C.
Under `O=[N+]([O-])c1ccc2c(c1)CN[C@H](CO)C2` stands 184 °C; under `Cc1ccc(Cn2c(=O)c3c(N4CCN(C)CC4)cc(Cl)cc3n(Cc3ccccc3)c2=O)o1`, 132 to 136 °C; under `Clc1ccc(N2CCN(Cc3nc4ccccc4[nH]3)CC2)cc1`, 212 to 213 °C.
Under `CCNC(=O)c1c(Cl)cccc1[Si](C)(C)C1CC2CCC1C2` (configuration not stated) stands 124 to 125 °C; under `N#Cc1cc(C(=O)O)n(/C=C/c2ccccc2)c1`, 166 to 168 °C; under `CC(CCC(=O)N(C)C#N)C(=O)N(C)C#N` (configuration not stated), 59.2 to 60.9 °C.
Under `CN1CCN(c2nc(C=C3SC(=S)N(CC(=O)O)C3=O)cs2)CC1` stands more than 300 °C; under `COC(=O)CC1CCN(C(=O)N2CCC(c3ccc(C#N)cc3)CC2)CC1`, 115 to 118 °C.
In the case of `CCCNc1ccc2nc(NC(=O)c3ccc(C(C)(C)C)cc3)cn2n1`, the melting point lay in the range of 243 to 244 °C.
Under `CCOc1cc2cc(COC(C)=O)c(COC(C)=O)c(-c3ccnc(-n4ccc5ccccc5c4=O)c3)c2cc1OCC` stands 90 to 93 °C; under `O=[N+]([O-])c1ccc(-c2cccnc2)s1`, 169 to 171 °C.
Under `CCCc1c(O)c(O)c(C(=O)O)c2ccc(C)cc12` stands 159 to 160 °C; under `CN1C(=O)[C@H](NC(=O)CCc2ccccc2C(F)(F)F)N=C(c2ccccc2)c2ccccc21`, 110 to 113 °C; under `COc1cc2[nH]c3nc[nH]c(=O)c3c2cc1OC`, 296 to 298 °C.
Turning to `CC1CN(c2ccccn2)N=C1N` (configuration not stated), the melting point was in the range of 149 to 151 °C.
Under `Cc1nc(NC(=O)c2cccnc2)sc1C(=O)NCc1ccccc1` stands 224 to 226 °C.
Under `O=S(CC(O)CCl)c1ncc(Cl)cn1` (configuration not stated) stands 170 °C; under `O=C(NCC1CN(c2ccc(N3CCOCC3=O)cc2)C(=O)O1)c1ccc(Cl)s1` (configuration not stated), 227 °C; under `O=C(O)CN1CC(c2ccc(Cl)cc2)CC1=O` (configuration not stated), 142 to 143 °C.
